Data taken from patent US6500853B1, “Inhibitors of phospholipase enzymes” (Genetics Institute, LLC, priority 1998, dated 2002).
Blank lines part the entries; values can stand above or below the compound they belong to.

Molecular target: T1, cPLA2 (Homo sapiens, UniProt P47712)
T1 sequence (P47712 1-749): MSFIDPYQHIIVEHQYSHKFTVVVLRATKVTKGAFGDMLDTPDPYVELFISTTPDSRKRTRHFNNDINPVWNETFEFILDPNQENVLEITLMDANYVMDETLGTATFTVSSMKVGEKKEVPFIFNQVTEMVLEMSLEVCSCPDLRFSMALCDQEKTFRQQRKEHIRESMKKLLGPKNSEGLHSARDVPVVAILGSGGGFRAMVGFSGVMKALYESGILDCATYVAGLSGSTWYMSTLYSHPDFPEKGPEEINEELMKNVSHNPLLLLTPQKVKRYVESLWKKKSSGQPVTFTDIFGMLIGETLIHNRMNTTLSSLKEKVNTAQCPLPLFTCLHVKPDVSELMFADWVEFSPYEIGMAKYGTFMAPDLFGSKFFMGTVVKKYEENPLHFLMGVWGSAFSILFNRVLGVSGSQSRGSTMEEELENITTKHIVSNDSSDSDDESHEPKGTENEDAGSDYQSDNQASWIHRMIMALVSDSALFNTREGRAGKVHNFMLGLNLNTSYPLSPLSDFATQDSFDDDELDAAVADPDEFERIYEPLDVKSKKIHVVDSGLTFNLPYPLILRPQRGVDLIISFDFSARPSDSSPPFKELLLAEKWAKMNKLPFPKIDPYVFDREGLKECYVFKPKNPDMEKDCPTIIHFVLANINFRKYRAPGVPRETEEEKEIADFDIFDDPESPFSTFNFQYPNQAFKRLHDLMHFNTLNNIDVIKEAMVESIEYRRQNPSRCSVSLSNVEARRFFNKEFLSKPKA
Assay: Coumarin Assay (cPLA2 inhibition)
Type: biochemical
Conditions: for inhibition at 10 µM: CONCENTRATION 10 micromolar; for inhibition at 12.5 µM: CONCENTRATION 12.5 micromolar; for inhibition at 70 µM: CONCENTRATION 70 micromolar
Procedure: Table I reports data for the compounds described in the examples above in cPLA2 inhibition assays (described below). In the data columns of Tables I and II, assay results are reported as a percent inhibition at the concentration specified.
7-hydroxycoumarinyl 6-heptenoate was used as a monomeric substrate for cPLA2 as reported previously (Huang, Z. et al., 1994, Nalytical Biochemistry 222, 110-115). Inhibitors were mixed with 200 μL assay buffer (80 mM Heped, pH 7.5, 1 mM EDTA) containing 60 μM 7-hydroxycoumarinyl 6-heptenoate. The reaction was initiated by adding 4 μg cPLA2 in 50 μL assay buffer. Hydrolysis of the 7-hydroxycounarimyl 6-heptenoate ester was monitored in a fluorometer by exciting at 360 nm and monitoring emission at 460 nm. Enzyme activity is proportional to the increase in emission at 460 nm per minute. In the presence of a cPLA2 inhibitor, the rate of increase is less. The percent inhibition for corresponding concentrations of compounds herein in this Coumarin assay are provided below in Table I.

[1] = CONCENTRATION 50 micromolar, read-out: PERCENT INHIBITION @

Structure (SMILES): COc1cc(C(=O)NS(=O)(=O)c2ccccc2C)ccc1Cc1cn(C(c2ccccc2)c2ccccc2)c2ccc([N+](=O)[O-])cc12 [Example 36, N-{4-[(1-benzhydryl-5-nitro-1H-indol-3-yl)methyl]-3-methoxybenzoyl}-2-methylbenzenesulfonamide]
inhibition at 0.22 µM (CONCENTRATION 0.22 micromolar, read-out: PERCENT INHIBITION @): 50% | inhibition at 0.25 µM (CONCENTRATION 0.25 micromolar, read-out: PERCENT INHIBITION @): 60% | inhibition at 0.32 µM (CONCENTRATION 0.32 micromolar, read-out: PERCENT INHIBITION @): 50% | inhibition at 0.45 µM (CONCENTRATION 0.45 micromolar, read-out: PERCENT INHIBITION @): 50%

Structure (SMILES): O=C(Nc1cccc(C(=O)O)c1)C(=O)c1cn(Cc2ccc(COc3cc(C(F)(F)F)cc(C(F)(F)F)c3)cc2)c2ccccc12 [Example 60, 3-({2-[1-(4-{[3,5-bis(trifluoromethyl)phenoxy]methyl}benzyl)-1H-indol-3yl]-2oxoacetyl}amino)benzoic acid]
inhibition at 12.5 µM (read-out: PERCENT INHIBITION @): 50%

Structure (SMILES): O=C(Nc1cccc(C(=O)O)c1)C(=O)c1cn(CCCOc2ccc(Cc3ccccc3)cc2)c2ccccc12 [Example 62, 3-[(2-{1-[3-(4-benzylphenoxy)propyl]-1H-indol-3-yl}-2-oxoacetyl)amino]benzoic acid]
inhibition at 7 µM (CONCENTRATION 7 micromolar, read-out: PERCENT INHIBITION @): 50% | inhibition at 12.5 µM (read-out: PERCENT INHIBITION @): 86%

Structure (SMILES): O=C(Nc1cccc(C(=O)O)c1)C(=O)c1cn(Cc2ccccc2S(=O)(=O)Cc2ccccc2)c2ccccc12 [Example 64, 3-[(2-{1-[2-(benzylsulfonyl)benzyl]-1H-indol-3-yl}-2-oxoacetyl)amino]benzoic acid]
inhibition at 32 µM (CONCENTRATION 32 micromolar, read-out: PERCENT INHIBITION @): 50% | inhibition at 37 µM (CONCENTRATION 37 micromolar, read-out: PERCENT INHIBITION @): 50%

Structure (SMILES): O=C(O)C(=O)c1cn(Cc2ccc(Cc3ccccc3)cc2)c2ccc(OCc3ccccc3)cc12 [Example 69, 2-[1-(4-benzylbenzyl)-5-(benzyloxy)-1H-indol-3-yl]-2-oxoacetic acid]
inhibition at 12.5 µM (read-out: PERCENT INHIBITION @): 50%

Structure (SMILES): O=C(O)C(=O)c1cn(Cc2ccc(C(F)(F)F)cc2C(F)(F)F)c2ccc(OCc3ccccc3)cc12 [Example 70, 2-{5-(benzyloxy)-1-[2,4-bis(trifluoromethyl)benzyl]-1H-indol3-yl}-2-oxoacetic acid]
PERCENT INHIBITION @ (CONCENTRATION 50 micromolar): 40% | inhibition at 50 µM [1]: 39%

Structure (SMILES): O=C(Nc1cccc(C(=O)O)c1)C(=O)c1cn(Cc2ccc(Cc3ccccc3)cc2)c2ccc(OCc3ccccc3)cc12 [Example 71, 3-({2-[1-(4-benzylbenzyl)-5-(benzyloxy)-1H-indol-3-yl]-2-oxoacetyl}amino)benzoic acid]
inhibition at 1.5 µM (CONCENTRATION 1.5 micromolar, read-out: PERCENT INHIBITION @): 50% | inhibition at 3.5 µM (CONCENTRATION 3.5 micromolar, read-out: PERCENT INHIBITION @): 50% | inhibition at 3.8 µM (CONCENTRATION 3.8 micromolar, read-out: PERCENT INHIBITION @): 50% | inhibition at 6 µM (CONCENTRATION 6 micromolar, read-out: PERCENT INHIBITION @): 69%

Structure (SMILES): O=C(Nc1cc(C(=O)O)cc(C(=O)O)c1)C(=O)c1cn(Cc2ccc(C(F)(F)F)cc2C(F)(F)F)c2ccc(OCc3ccccc3)cc12 [Example 72, 5-[(2-{5-(benzyloxy)-1-[2,4-bis(trifluoromethyl)benzyl]-1H-indol-3-yl}-2-oxoacetyl)amino]isophthalic acid]
inhibition at 12.5 µM (read-out: PERCENT INHIBITION @): 50%

Structure (SMILES): O=C(O)Cc1cn(CC2CC2)c2ccc(-c3cccs3)cc12 [Example 78, 2-[1-(cyclopropylmethyl)-5-(2-thienyl)-1H-indol-3-yl]acetic acid]
inhibition at 80 µM (CONCENTRATION 80 micromolar, read-out: PERCENT INHIBITION @): 50% | inhibition at 110 µM (CONCENTRATION 110 micromolar, read-out: PERCENT INHIBITION @): 50%

Structure (SMILES): O=C(O)Cc1cn(Cc2ccccc2)c2ccc(-c3ccccc3)cc12 [Example 81, 2-(1-benzyl-5-phenyl-1H-indol-3-yl)acetic acid]
inhibition at 70 µM (read-out: PERCENT INHIBITION @): 50% | inhibition at 100 µM (CONCENTRATION 100 micromolar, read-out: PERCENT INHIBITION @): 46%

The remaining lines, values ahead:

inhibition at 2 µM (CONCENTRATION 2 micromolar, read-out: PERCENT INHIBITION @): 50% | inhibition at 2.5 µM (CONCENTRATION 2.5 micromolar, read-out: PERCENT INHIBITION @): 57%
Structure (SMILES): COc1cc(C(=O)NS(=O)(=O)c2nnc(NC(C)=O)s2)ccc1Cc1cn(C(c2ccccc2)c2ccccc2)c2ccc(NC(=O)OC3CCCC3)cc12 [Example 34, cyclopentyl N-(3-{4-[({[5-(acetylamino)-1,3,4-thiadiazol-2-yl]sulfonyl}amino)carbonyl]-2-methoxybenzyl}-1-benzhydryl-1H-indol-5-yl)carbamate]

inhibition at 10 µM (read-out: PERCENT INHIBITION @): 23% | inhibition at 20 µM (CONCENTRATION 20 micromolar, read-out: PERCENT INHIBITION @): 42% | inhibition at 41 µM (CONCENTRATION 41 micromolar, read-out: PERCENT INHIBITION @): 50%
Structure (SMILES): COc1cc(C(=O)NS(=O)(=O)c2ccc(N3N=C(C)CC3=O)cc2)ccc1Cc1cn(C(c2ccccc2)c2ccccc2)c2ccc(NC(=O)OC3CCCC3)cc12 [Example 35, cyclopentyl N-(1-benzhydryl-3-{2-methoxy-4[({[4-(3-methyl-5-oxo-4,5-dihydro-1H-pyrazol-1-yl)phenyl]sulfonyl}amino)carbonyl]benzyl}-1H-indol-5-yl)carbamate]

inhibition at 12 µM (CONCENTRATION 12 micromolar, read-out: PERCENT INHIBITION @): 50% | inhibition at 14 µM (CONCENTRATION 14 micromolar, read-out: PERCENT INHIBITION @): 50%
Structure (SMILES): COc1cc(C(=O)NS(=O)(=O)c2ccccc2C)ccc1Cc1cn(C(c2ccccc2)c2ccccc2)c2ccc(NC(=O)C3CCCC3)cc12 [Example 43, N-{1-benzhydryl-3-[2-methoxy-4-({[(2-methylphenyl)sulfonyl]amino}carbonyl)benzyl]-1H-indol-5-yl}cyclopentanecarboxamide]

inhibition at 160 µM (CONCENTRATION 160 micromolar, read-out: PERCENT INHIBITION @): 50% | inhibition at 180 µM (CONCENTRATION 180 micromolar, read-out: PERCENT INHIBITION @): 50%
Structure (SMILES): O=C(O)Cc1cn(CC2CC2)c2ccc(Br)cc12 [Example 77, 2-[5-bromo-1-(cyclopropylmethyl)-1H-indol-3-yl]acetic acid]

inhibition at 60 µM (CONCENTRATION 60 micromolar, read-out: PERCENT INHIBITION @): 50% | inhibition at 65 µM (CONCENTRATION 65 micromolar, read-out: PERCENT INHIBITION @): 50%
Structure (SMILES): O=C(O)Cc1cn(CC2CC2)c2ccc(-c3cccc(C(F)(F)F)c3)cc12 [Example 79, 2-{1-(cyclopropylmethyl)-5-[3-(trifluoromethyl)phenyl]-1H-indol-3-yl}acetic acid]

inhibition at 46 µM (CONCENTRATION 46 micromolar, read-out: PERCENT INHIBITION @): 50% | inhibition at 50 µM [1]: 50%
Structure (SMILES): O=C1NC(=O)/C(=C\c2cn(CCCOc3cccc(Cc4ccccc4)c3)c3ccccc23)S1 [Example 82A, 5-((E)-{1-[3-(3-benzylphenoxy)propyl]-1H-indol-3-yl}methylidene)-1,3-thiazolane-2,4-dione]

inhibition at 8 µM (CONCENTRATION 8 micromolar, read-out: PERCENT INHIBITION @): 50% | inhibition at 10 µM (read-out: PERCENT INHIBITION @): 50%
Structure (SMILES): O=C(O)CN1C(=O)S/C(=C/c2cn(CCCOc3cccc(Cc4ccccc4)c3)c3ccccc23)C1=O [Example 82C, 2-[5-((E)-{1-[3-(3-benzylphenoxy)propyl]-1H-indol-3-yl}methylidene)-2,4-dioxo-1,3-thiazolan-3-yl]acetic acid]

inhibition at 48 µM (CONCENTRATION 48 micromolar, read-out: PERCENT INHIBITION @): 50% | inhibition at 70 µM (read-out: PERCENT INHIBITION @): 50%
Structure (SMILES): O=C(O)CCc1cn(CCCOc2cccc(Cc3ccccc3)c2)c2ccccc12 [Example 83, 3-{1-[3-(3-benzylphenoxy)propyl]-1H-indol-3-yl}propanoic acid]

PERCENT INHIBITION @ (CONCENTRATION 1.25 micromolar): 53% | inhibition at 1.25 µM (CONCENTRATION 1.25 micromolar, read-out: PERCENT INHIBITION @): 50% | inhibition at 1.32 µM (CONCENTRATION 1.32 micromolar, read-out: PERCENT INHIBITION @): 50%
Structure (SMILES): Cc1c(Cc2ccc(C(=O)O)cc2)c2cc(Cl)ccc2n1C(c1ccccc1)c1ccccc1 [Example 88, 4-[(1-benzhydryl-5-chloro-2-methyl-1H-indol-3-yl)methyl]benzoic acid]
